Consider seven compounds from paper PMC4930906 (The Korean Journal of Physiology & Pharmacology : Official …, 2016).

One test addresses T1, TRESK (Mus musculus, UniProt Q6VV64).
T1 sequence (Q6VV64 1-394): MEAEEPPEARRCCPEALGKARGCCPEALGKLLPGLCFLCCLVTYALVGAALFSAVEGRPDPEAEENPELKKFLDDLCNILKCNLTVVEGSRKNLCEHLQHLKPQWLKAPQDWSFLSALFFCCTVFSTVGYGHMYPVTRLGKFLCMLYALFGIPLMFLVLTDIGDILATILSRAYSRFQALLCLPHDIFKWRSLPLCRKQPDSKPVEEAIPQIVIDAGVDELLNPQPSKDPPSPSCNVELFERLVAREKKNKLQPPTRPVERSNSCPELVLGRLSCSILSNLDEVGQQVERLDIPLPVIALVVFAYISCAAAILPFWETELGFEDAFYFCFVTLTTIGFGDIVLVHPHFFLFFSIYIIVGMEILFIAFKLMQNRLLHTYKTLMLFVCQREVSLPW
In words: whole-cell patch clamp, HEK293, voltage ramp, current at +[…] mV. The format is cell-based.

The next test addresses T2, TREK-2 (Rattus norvegicus, UniProt Q9JIS4).
T2 sequence (Q9JIS4 1-538): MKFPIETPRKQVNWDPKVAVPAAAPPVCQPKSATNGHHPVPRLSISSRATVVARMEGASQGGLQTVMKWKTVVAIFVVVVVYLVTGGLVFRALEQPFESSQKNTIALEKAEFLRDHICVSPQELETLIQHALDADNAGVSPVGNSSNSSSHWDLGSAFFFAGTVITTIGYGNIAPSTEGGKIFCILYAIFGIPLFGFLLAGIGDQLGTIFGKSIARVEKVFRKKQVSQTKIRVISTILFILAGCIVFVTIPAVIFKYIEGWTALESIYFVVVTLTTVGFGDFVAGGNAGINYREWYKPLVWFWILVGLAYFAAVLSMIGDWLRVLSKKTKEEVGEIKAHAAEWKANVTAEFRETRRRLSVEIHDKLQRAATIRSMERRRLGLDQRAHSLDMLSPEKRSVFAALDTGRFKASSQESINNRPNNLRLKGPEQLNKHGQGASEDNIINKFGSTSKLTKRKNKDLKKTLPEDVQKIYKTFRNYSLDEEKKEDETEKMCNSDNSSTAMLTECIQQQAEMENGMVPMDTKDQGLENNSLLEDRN
The description is as above. The format is cell-based.

A word on the IC50: it is the concentration needed to halve the response being measured. On to `CC(C)Cc1ccc(C(C)C(=O)O)cc1` (stereo not shown) [ibuprofen], for which the midpoint of inhibition against TRESK, the IC50, lay at 889 ± 10 µM.

As to `CC(NC(C)(C)C)C(=O)c1cccc(Cl)c1` (stereo not shown) [bupropion], at TRESK, the IC50 worked out at 160 ± 17 µM. The same measure, in the same setting: with `CC(=O)Nc1ccc(O)cc1` [acetaminophen] the figure was 220 ± 26 µM. `CN(C)CCC=C1c2ccccc2CCc2ccccc21` [amitriptyline]: the 50% inhibitory concentration (IC50) was determined as 26 ± 5 µM on TRESK and 16 ± 4 µM at TREK-2. The corresponding values for `CN(C)CCC[C@@]1(c2ccc(F)cc2)OCc2cc(C#N)ccc21` [escitalopram] are 49 ± 7 µM and 102 ± 9 µM. Regarding `CN(C)CCCC1(c2ccc(F)cc2)OCc2cc(C#N)ccc21` (stereo not shown) [citalopram], the values for the half-maximal inhibitory concentration (IC50) at TRESK and against TREK-2 were 168 ± 11 µM and 110 ± 9 µM, respectively. `COc1ccc2cc(CCC(C)=O)ccc2c1` [nabumetone]: the 50% inhibitory concentration (IC50) at TRESK turned out to be 557 ± 35 µM.
